Structures can show the parent of a compound that is named as a salt.
How the values were obtained:
Format in all cases: biochemical
recombinant human VAP-1 = molecular target: T1, recombinant human VAP-1 (Homo sapiens, UniProt Q16853); assay: Activity evaluation on recombinant human VAP-1 (Amplex Red/HRP-coupled hydrogen peroxide assay, benzylamine substrate); conditions: recombinant human VAP-1; 30 min preincubation at 37° C.; 1 mM benzylamine; read-out: Inhibitory Activity (IC50, nM) human VAP-1
T1 construct: purchased R&D systems
T1 sequence (Q16853 1-763): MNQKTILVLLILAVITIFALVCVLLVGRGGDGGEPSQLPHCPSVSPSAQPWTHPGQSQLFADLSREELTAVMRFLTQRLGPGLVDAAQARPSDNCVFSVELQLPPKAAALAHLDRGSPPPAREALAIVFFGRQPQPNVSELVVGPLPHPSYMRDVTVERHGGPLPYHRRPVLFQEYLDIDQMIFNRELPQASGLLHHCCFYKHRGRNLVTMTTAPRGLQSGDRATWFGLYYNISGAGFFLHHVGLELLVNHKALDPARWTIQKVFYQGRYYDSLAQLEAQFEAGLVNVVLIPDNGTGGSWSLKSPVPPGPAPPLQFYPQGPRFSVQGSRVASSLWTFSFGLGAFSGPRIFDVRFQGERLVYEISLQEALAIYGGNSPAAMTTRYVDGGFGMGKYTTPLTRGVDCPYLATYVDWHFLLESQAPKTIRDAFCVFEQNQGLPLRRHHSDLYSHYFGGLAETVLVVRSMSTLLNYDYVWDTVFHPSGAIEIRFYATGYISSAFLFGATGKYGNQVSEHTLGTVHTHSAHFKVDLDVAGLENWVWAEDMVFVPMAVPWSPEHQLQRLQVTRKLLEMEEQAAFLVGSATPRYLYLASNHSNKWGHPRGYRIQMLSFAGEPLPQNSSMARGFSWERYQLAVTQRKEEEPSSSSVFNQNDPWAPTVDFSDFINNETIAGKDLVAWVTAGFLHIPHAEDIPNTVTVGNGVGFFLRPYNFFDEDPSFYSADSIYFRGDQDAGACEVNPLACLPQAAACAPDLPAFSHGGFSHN
How it was run: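 Recombinant human VAP-1 in 50 mM sodium phosphate pH 7.4 preincubated 30 min at 37 °C with compound (8-point 1:3 series, <1% DMSO), then 1 mM benzylamine, 200 uM Amplex Red, 1 U/mL HRP added. H2O2-derived resorufin fluorescence (ex 544/em 590) followed 1–2 h; IC50 from four-parameter fit of rate inhibition.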

[1] = molecular target: T2, recombinant human MAO-A (monoamine oxidase-A) (Homo sapiens, UniProt P21397); assay: Activity evaluation on recombinant human MAO-A (Amplex Red/HRP-coupled assay, 0.5 mM tyramine substrate); conditions: 0.5 mM tyramine, read-out: Inhibitory Activity (IC50, nM) MAO-A
T2 construct: purchased Sigma-Aldrich
T2 sequence (P21397 1-527): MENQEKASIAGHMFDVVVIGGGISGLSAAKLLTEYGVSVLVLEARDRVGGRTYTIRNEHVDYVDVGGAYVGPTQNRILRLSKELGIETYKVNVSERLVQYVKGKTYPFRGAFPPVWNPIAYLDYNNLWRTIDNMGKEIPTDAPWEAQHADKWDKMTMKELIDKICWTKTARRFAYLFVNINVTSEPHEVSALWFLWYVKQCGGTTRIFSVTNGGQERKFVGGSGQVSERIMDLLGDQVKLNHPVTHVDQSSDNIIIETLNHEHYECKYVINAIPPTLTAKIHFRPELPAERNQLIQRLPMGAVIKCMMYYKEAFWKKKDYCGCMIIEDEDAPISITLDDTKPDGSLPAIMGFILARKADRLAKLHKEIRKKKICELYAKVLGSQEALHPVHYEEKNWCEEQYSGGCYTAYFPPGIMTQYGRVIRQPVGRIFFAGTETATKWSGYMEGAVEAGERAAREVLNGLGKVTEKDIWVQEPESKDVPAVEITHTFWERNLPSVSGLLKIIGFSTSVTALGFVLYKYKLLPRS
How it was run: (§1)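 Enzyme activity was measured as fluorescence rate (ex 544, em 590 nm) from resorufin formed by HRP-coupled H2O2 oxidation of 200 uM Amplex Red. Compounds were first incubated 30 min at 37 °C with enzyme at pH 7.4; substrates were 0.5 mM tyramine (MAO-A), 1 mM benzylamine (MAO-B) and 1 mM putrescine (DAO).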

[2] = molecular target: T3, recombinant human MAO-B (monoamine oxidase-B) (Homo sapiens, UniProt P27338); assay: Activity evaluation on recombinant human MAO-B (Amplex Red/HRP-coupled assay, 1 mM benzylamine substrate); conditions: 1 mM benzylamine, read-out: Inhibitory Activity (IC50, nM) MAO-B
T3 construct: purchased Sigma-Aldrich
T3 sequence (P27338 1-520): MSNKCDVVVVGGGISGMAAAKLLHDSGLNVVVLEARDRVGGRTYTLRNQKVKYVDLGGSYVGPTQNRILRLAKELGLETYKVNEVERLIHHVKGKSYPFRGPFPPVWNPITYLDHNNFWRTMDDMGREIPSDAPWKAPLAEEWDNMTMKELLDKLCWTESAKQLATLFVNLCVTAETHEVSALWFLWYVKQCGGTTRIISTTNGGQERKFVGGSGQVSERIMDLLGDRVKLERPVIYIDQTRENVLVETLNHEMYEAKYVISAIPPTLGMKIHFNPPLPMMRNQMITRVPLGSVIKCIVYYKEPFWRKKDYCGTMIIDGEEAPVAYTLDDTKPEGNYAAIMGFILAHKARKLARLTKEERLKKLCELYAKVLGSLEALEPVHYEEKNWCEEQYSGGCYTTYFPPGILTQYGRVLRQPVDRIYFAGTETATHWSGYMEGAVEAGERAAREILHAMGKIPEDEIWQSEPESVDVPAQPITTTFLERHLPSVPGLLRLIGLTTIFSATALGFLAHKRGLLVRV
How it was run: as §1

[3] = molecular target: T4, recombinant human DAO (diamine oxidase) (Homo sapiens, UniProt P19801); assay: Activity evaluation on recombinant human DAO (Amplex Red/HRP-coupled assay, 1 mM putrescine substrate); conditions: 1 mM putrescine, read-out: Inhibitory Activity (IC50, nM) DAO
T4 construct: purchased R&D systems
T4 sequence (P19801 20-751): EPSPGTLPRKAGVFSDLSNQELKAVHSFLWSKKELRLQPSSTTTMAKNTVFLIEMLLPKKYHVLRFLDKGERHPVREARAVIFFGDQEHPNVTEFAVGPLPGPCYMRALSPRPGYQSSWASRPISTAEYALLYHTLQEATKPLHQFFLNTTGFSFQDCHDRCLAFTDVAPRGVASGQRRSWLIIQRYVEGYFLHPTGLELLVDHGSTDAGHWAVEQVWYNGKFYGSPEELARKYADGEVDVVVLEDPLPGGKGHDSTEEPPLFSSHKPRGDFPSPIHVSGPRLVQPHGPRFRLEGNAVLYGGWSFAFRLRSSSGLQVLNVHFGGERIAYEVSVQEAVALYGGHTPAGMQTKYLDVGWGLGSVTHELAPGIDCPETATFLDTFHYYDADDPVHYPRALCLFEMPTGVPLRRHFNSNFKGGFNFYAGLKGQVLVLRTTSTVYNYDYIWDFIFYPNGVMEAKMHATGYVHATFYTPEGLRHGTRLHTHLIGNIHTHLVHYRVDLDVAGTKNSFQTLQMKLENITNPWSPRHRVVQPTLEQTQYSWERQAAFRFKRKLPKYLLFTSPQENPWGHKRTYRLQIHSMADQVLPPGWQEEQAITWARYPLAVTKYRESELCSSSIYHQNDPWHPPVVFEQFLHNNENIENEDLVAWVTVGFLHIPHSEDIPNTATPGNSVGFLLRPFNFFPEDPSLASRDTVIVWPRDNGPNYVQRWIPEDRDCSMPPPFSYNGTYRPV
How it was run: as §1

Row | Compound | IC50 (recombinant human VAP-1) | IC50 [1] | IC50 [2] | IC50 [3]
1 | NCC(Cn1ncn(-c2ccnc(-c3ccc(N4CCNCC4)cc3)c2)c1=O)=C(F)F [Example 62, 2-[2-(aminomethyl)-3,3-difluoro-allyl]-4-[2-(4-piperazin-1-ylphenyl)-4-pyridyl]-1,2,4-triazol-3-one Ditrifluoroacetate] | 1.5 nM | > 100000 nM | > 100000 nM | 160 nM
2 | CN(C)c1ccc(-c2cc(-n3cnn(CC(CN)=C(F)F)c3=O)ccn2)cn1 [Example 63, 2-[2-(aminomethyl)-3,3-difluoro-allyl]-4-[2-[6-(dimethylamino)-3-pyridyl]-4-pyridyl]-1,2,4-triazol-3-one Trifluoroacetate] | 0.7 nM | > 100000 nM | 16000 nM | 110 nM
3 | NCC(Cn1ncn(-c2ccnc(-c3ccc4c(c3)OCO4)c2)c1=O)=C(F)F [Example 64, 2-[2-(aminomethyl)-3,3-difluoro-allyl]-4-[2-(1,3-benzodioxol-5-yl)-4-pyridyl]-1,2,4-triazol-3-one Trifluoroacetate] | 0.4 nM | > 100000 nM | 480 nM | 270 nM
4 | Cc1cc(-c2cc(-n3cnn(CC(CN)=C(F)F)c3=O)ccn2)cc2c1NC(=O)CC2 [Example 65, 6-[4-[1-[2-(aminomethyl)-3,3-difluoro-allyl]-5-oxo-1,2,4-triazol-4-yl]-2-pyridyl]-8-methyl-3,4-dihydro-1H-quinolin-2-one Trifluoroacetate] | 0.3 nM | > 100000 nM | 12000 nM | 290 nM
5 | CN1C(=O)CCc2cc(-c3cc(-n4cnn(CC(CN)=C(F)F)c4=O)ccn3)ccc21 [Example 66, 6-[4-[1-[2-(aminomethyl)-3,3-difluoro-allyl]-5-oxo-1,2,4-triazol-4-yl]-2-pyridyl]-1-methyl-3,4-dihydroquinolin-2-one Trifluoroacetate] | 0.6 nM | > 100000 nM | 4800 nM | 250 nM
6 | CCn1cc(-c2cc(-n3cnn(CC(CN)=C(F)F)c3=O)ccn2)cn1 [Example 67, 2-[2-(aminomethyl)-3,3-difluoro-allyl]-4-[2-(1-ethylpyrazol-4-yl)-4-pyridyl]-1,2,4-triazol-3-one Trifluoroacetate] | 0.9 nM | > 100000 nM | 8300 nM | 490 nM
7 | Cc1cc(-c2ccc(S(C)(=O)=O)cc2)cnc1-n1cnn(CC(CN)=C(F)F)c1=O [Example 68, 2-[2-(aminomethyl)-3,3-difluoro-allyl]-4-[3-methyl-5-(4-methylsulfonylphenyl)-2-pyridyl]-1,2,4-triazol-3-one Trifluoroacetate] | 0.5 nM | > 100000 nM | 55000 nM | 2100 nM
8 | Cc1cc(-c2ccc(N3CCNCC3)cc2)cnc1-n1cnn(CC(CN)=C(F)F)c1=O [Example 69, 2-[2-(aminomethyl)-3,3-difluoro-allyl]-4-[3-methyl-5-(4-piperazin-1-ylphenyl)-2-pyridyl]-1,2,4-triazol-3-one Ditrifluoroacetate] | 1.2 nM | > 100000 nM | > 100000 nM | > 100000 nM
9 | Cc1cc(-c2ccc(C(F)(F)F)nc2)cnc1-n1cnn(CC(CN)=C(F)F)c1=O [Example 70, 2-[2-(aminomethyl)-3,3-difluoro-allyl]-4-[3-methyl-5-[6-(trifluoromethyl)-3-pyridyl]-2-pyridyl]-1,2,4-triazol-3-one Trifluoroacetate] | 0.7 nM | > 100000 nM | 5800 nM | 1500 nM
10 | Cc1cc(-c2ccc(N(C)C)nc2)cnc1-n1cnn(CC(CN)=C(F)F)c1=O [Example 71, 2-[2-(aminomethyl)-3,3-difluoro-allyl]-4-[5-[6-(dimethylamino)-3-pyridyl]-3-methyl-2-pyridyl]-1,2,4-triazol-3-one Trifluoroacetate] | 0.8 nM | > 100000 nM | > 100000 nM | > 100000 nM
11 | Cc1cc(-c2ccc3c(c2)OCO3)cnc1-n1cnn(CC(CN)=C(F)F)c1=O [Example 72, 2-[2-(aminomethyl)-3,3-difluoro-allyl]-4-[5-(1,3-benzodioxol-5-yl)-3-methyl-2-pyridyl]-1,2,4-triazol-3-one Trifluoroacetate] | 0.5 nM | > 100000 nM | 1500 nM | 57000 nM
12 | Cc1cc(-c2cc(C)c3c(c2)CCC(=O)N3)cnc1-n1cnn(CC(CN)=C(F)F)c1=O [Example 73, 6-[6-[1-[2-(aminomethyl)-3,3-difluoro-allyl]-5-oxo-1,2,4-triazol-4-yl]-5-methyl-3-pyridyl]-8-methyl-3,4-dihydro-1H-quinolin-2-one Trifluoroacetate] | 0.3 nM | > 100000 nM | 7200 nM | 6100 nM
13 | Cc1cc(-c2ccc3c(c2)CCC(=O)N3C)cnc1-n1cnn(CC(CN)=C(F)F)c1=O [Example 74, 6-[6-[1-[2-(aminomethyl)-3,3-difluoro-allyl]-5-oxo-1,2,4-triazol-4-yl]-5-methyl-3-pyridyl]-1-methyl-3,4-dihydroquinolin-2-one Trifluoroacetate] | 0.3 nM | > 100000 nM | 7500 nM | 6500 nM

— patent US11168073B2, “3,3-difluoroallylamines or salts thereof and pharmaceutical compositions comprising the same” (YUHAN CORPORATION, priority 2018, dated 2021)
